Measured values published in US4244965A, “Azetidinoyl ethers” (Beecham Group Limited, priority 1978, dated 1981).
In brackets after ≈: the same amount, converted by molar mass. Several values for one entry are separate records, joined by “and”; a condition that tells them apart may be missing. Equal entries are not always repeated. Where two headings read alike, the source gives them in different places.

Tests used:
Staph. aureus Russell = assay: standard MIC test (Demonstration 1c); format: cell-based; conditions: Staphylococcus aureus
Escherichia coli JT39 [1] = assay: standard MIC test (Demonstration 1c); format: cell-based
[2] = Signs of drug toxicity during the in-vivo tests (Demonstration 1); conditions: mice
Description: (§1) a. Sub-cutanvenous administration: Groups of mice were infected inter peritoneally with Escherichia coli JT39. At 1 and 5 hours post infection the mice were treated with amoxycillin (Amox.) or with amoxycillin and synergist. The solutions were made up in phosphate buffer. The results were as follows:
(§2) b. Oral administration: Groups of mice were infected inter peritoneally with Escherichia coli JT39. At 1, 3 and 5 hours post-infection the mice were treated with amoxycillin or with amoxycillin and synergist. The solutions were made up in phosphate buffer.

[3] = tested on: gram negative bacteria such as Escherichia and Klebsiella and gram positive bacteria such as Staphylococcus; assay: Summary of the synergy tests with penicillins (Demonstration 1d); conditions: summary of preceding tests
Description: as §1, §2

Klebsiella E70 = assay: standard MIC test (Demonstration 1c); format: cell-based; conditions: alone
Staph Russell = assay: standard microliter MIC test (Demonstrations 3-5); format: cell-based; conditions: for MIC: alone
Kleb E 70 = assay: standard microliter MIC test (Demonstrations 3-5); format: cell-based, Klebsiella
E. coli JT 39 [4] = assay: standard microliter MIC test (Demonstrations 3-5); format: cell-based; conditions: for MIC: alone
E. coli JT 410 [5] = assay: standard microliter MIC test (Demonstrations 3-5); format: cell-based
Proteus C 889 [6] = assay: standard microliter MIC test (Demonstrations 3-5); format: cell-based; conditions: for MIC: alone; for MIC (ampicillin + title compound): trailing end point
Escherichia coli JT39 [7] = assay: Amoxycillin with or without synergist, E. coli JT39 intraperitoneal infection of mice, subcutaneous (Demonstration 1a); format: in vivo, Escherichia coli (infected mice); conditions: JT39, sc, antibiotic alone, sub-cutaneous, 1 and 5 hours post infection, read-out: CD50 (the source's name)
Description: a. Sub-cutanvenous administration: Groups of mice were infected inter peritoneally with Escherichia coli JT39. At 1 and 5 hours post infection the mice were treated with amoxycillin (Amox.) or with amoxycillin and synergist. The solutions were made up in phosphate buffer.

Escherichia coli JT 39 = assay: intra peritoneal infection due to Escherichia coli JT 39 in mice, subcutaneous dosing (Demonstration 2b); format: in vivo, Escherichia coli (infected mice); conditions: for ED50: Escherichia coli, JT39, sc, alone, × 2, sub-cutaneous, 1 and 5 hours post infection, read-out: C50
Description: b. […] Dosing was sub-cutaneous and 1 and 5 hours post infection.

Escherichia coli JT39 [8] = assay: Amoxycillin with or without synergist, E. coli JT39 intraperitoneal infection of mice, oral (Demonstration 1b); format: in vivo, Escherichia coli (infected mice); conditions: antibiotic alone, oral, 1, 3 and 5 hours post-infection, read-out: CD50 (the source's name)
Description: as §2

[9] = Urinary recovery after oral administration to dogs (Demonstration 6); format: in vivo; conditions: for dose excreted at 24 h: dog, urine, po, 5 mg/kg
Description: (§3) Lithium 9-O-(azetidin-2'-on-4'-yl)clavulanate was administered orally to a group of eight dogs, weighing 9-12 kg, at a dosage of 5 mg/kg.
The urinary recovery of the compound over 24 hours was also measured.

[10] = Average blood levels after oral administration to dogs (Demonstration 6); format: in vivo; conditions: dog, 5 mg/kg
Description: as §3
The level of the compound in the blood was measured after 0.25, 0.5, 1, 2, 4 and 6 hours. The results are shown in Table 1, with those for sodium clavulanate for comparison.

Proteus C 889 [11] = assay: conventional microliter method, MIC (Demonstration 2a); format: cell-based
Description: (§4) a. The antibacterial and synergistic activity of the title compound (referred to as "Sunergist" in the Table) was determined by a conventional microliter method.

E. coli JT 39 [12] = assay: as above; format: cell-based; conditions: Escherichia coli, JT39
Description: as §4

Pseudomonas Dalgleish = assay: microbe, parasite or virus in culture; format: cell-based
Description: as §4

Kleb. E 70 = assay: conventional microliter method, MIC (Demonstration 2a); format: cell-based; conditions: Klebsiella; alone
Description: as §4

E. coli JT 410 [13] = assay: as above; format: cell-based; conditions: Escherichia coli, JT410; alone
Description: as §4

Staph. Russell = assay: as above; format: cell-based; conditions: alone
Description: as §4

[14] = Klebsiella, E70, alone, read-out: MIC
[15] = Escherichia coli, JT39, read-out: MIC
[16] = Escherichia coli, JT410, alone, read-out: MIC

SMILES: O=C1CC(OC/C=C2\O[C@@H]3CC(=O)N3[C@H]2C(=O)O)N1 (some centres unmarked) [Example 2, Sodium 9-O-(azetidin-2'-on-4'-yl)clavulanate]
- MIC (Staph. aureus Russell; alone, read-out: MIC): 8 µg/mL
- MIC (Escherichia coli JT39 [1]; alone, read-out: MIC): 31.2 µg/mL
- signs of drug toxicity [2]: No signs of drug toxicity were observed
- synergism with penicillins such as amoxycillin [3]: effective synergist for penicillins such as amoxycillin
- MIC (Klebsiella E70): 31.2 µg/mL

SMILES: N[C@@H]1C(=O)N[C@H]1OC/C=C1\O[C@@H]2CC(=O)N2[C@H]1C(=O)O [Example 13, 9-O-[(3S,4S)-2'-Oxo-3'-aminoazetidin-4'-yl]clavulanic acid]
- MIC (Staph Russell; read-out: MIC): 62.5 µg/mL (≈ 221 µM)
- MIC (Kleb E 70; [14]): 62.5 µg/mL (≈ 221 µM)
- MIC (E. coli JT 39 [4]; [15]): 62.5 µg/mL (≈ 221 µM)
- MIC (E. coli JT 410 [5]; [16]): 62.5 µg/mL (≈ 221 µM)
- MIC (Proteus C 889 [6]; read-out: MIC): 62.5 µg/mL (≈ 221 µM)

SMILES: CC1(C)S[C@@H]2[C@H](NC(=O)[C@H](N)c3ccc(O)cc3)C(=O)N2[C@H]1C(=O)O [Amoxycillin, amoxycillin]
- ED50 (Escherichia coli JT39 [7]): > 1000 mg/kg
- ED50 (Escherichia coli JT 39): > 1000 mg/kg
- ED50 (Escherichia coli JT39 [8]): > 1000 mg/kg

SMILES: Cc1nnc(SCC2=C(C(=O)O)N3C(=O)[C@@H](NC(=O)Cn4cnnn4)[C@H]3SC2)s1 [Cefazolin]
- ED50 (Escherichia coli JT 39): 13 mg/kg

SMILES: O=C1CC(OC/C=C2\O[C@@H]3CC(=O)N3[C@H]2C(=O)O)N1 (some centres unmarked) [Example 27, Lithium 9-O-(2'-oxoazetidin-4'-yl)-clavulanate]
- Urinary Recovery ([9]; 0-6 hour, Dog No. 1, 5 mg/kg): 10.8 mg
- Urinary Recovery ([9]; 0-6 hour, Dog No. 2, 5 mg/kg): 14.8 mg
- Urinary Recovery ([9]; 0-6 hour, Dog No. 3, 5 mg/kg): 13.1 mg
- Urinary Recovery ([9]; 0-6 hour, Dog No. 4, 5 mg/kg): 29.5 mg
- Urinary Recovery ([9]; 0-6 hour, Dog No. 5, 5 mg/kg): 18.5 mg
- Urinary Recovery ([9]; 0-6 hour, Dog No. 6, 5 mg/kg): 9.2 mg
- Urinary Recovery ([9]; 0-6 hour, Dog No. 7, 5 mg/kg): 9.25 mg
- Urinary Recovery ([9]; 0-6 hour, Dog No. 8, 5 mg/kg): 12.15 mg
- Urinary Recovery ([9]; 0-24 hour, Dog No. 1, 5 mg/kg): 11.7 mg
- Urinary Recovery ([9]; 0-24 hour, Dog No. 2, 5 mg/kg): 17.4 mg
- Urinary Recovery ([9]; 0-24 hour, Dog No. 3, 5 mg/kg): 18.8 mg
- Urinary Recovery ([9]; 0-24 hour, Dog No. 4, 5 mg/kg): 29.9 mg
- Urinary Recovery ([9]; 0-24 hour, Dog No. 5, 5 mg/kg): 19.6 mg
- Urinary Recovery ([9]; 0-24 hour, Dog No. 6, 5 mg/kg): 10.3 mg
- Urinary Recovery ([9]; 0-24 hour, Dog No. 7, 5 mg/kg): 11.1 mg
- Urinary Recovery ([9]; 0-24 hour, Dog No. 8, 5 mg/kg): 12.3 mg
- dose excreted at 24 h ([9]; Dog No. 1, read-out: Urinary Recovery, % over 24 hour): 20.1%
- dose excreted at 24 h ([9]; Dog No. 2, read-out: Urinary Recovery, % over 24 hour): 38.6%
- dose excreted at 24 h ([9]; Dog No. 3, read-out: Urinary Recovery, % over 24 hour): 32.1%
- dose excreted at 24 h ([9]; Dog No. 4, read-out: Urinary Recovery, % over 24 hour): 52.4%
- dose excreted at 24 h ([9]; Dog No. 5, read-out: Urinary Recovery, % over 24 hour): 37.3%
- dose excreted at 24 h ([9]; Dog No. 6, read-out: Urinary Recovery, % over 24 hour): 17.2%
- dose excreted at 24 h ([9]; Dog No. 7, read-out: Urinary Recovery, % over 24 hour): 19.1%
- dose excreted at 24 h ([9]; Dog No. 8, read-out: Urinary Recovery, % over 24 hour): 19.5%
- concentration at 0.25 h [10]: 1450 ng/mL
- concentration at 0.5 h [10]: 3640 ng/mL
- concentration at 1 h [10]: 4780 ng/mL
- concentration at 2 h [10]: 3790 ng/mL
- concentration at 4 h [10]: 710 ng/mL
- concentration at 6 h ([10]; 6 hours): < 200 ng/mL

SMILES: CC1(C)S[C@@H]2[C@H](NC(=O)[C@H](N)c3ccccc3)C(=O)N2[C@H]1C(=O)O [Ampicillin, ampicillin, reference compound]
- MIC (Kleb E 70; Klebsiella, E70): 1000 µg/mL (≈ 2860 µM)
- MIC (Kleb E 70; Klebsiella, E70, alone): 500 µg/mL (≈ 1430 µM)
- MIC (Proteus C 889 [11]): 1000 µg/mL
- MIC (E. coli JT 39 [12]): 2000 µg/mL
- MIC (E. coli JT 39 [4]; Escherichia coli, JT39): 2000 µg/mL (≈ 5720 µM)
- MIC (E. coli JT 39 [4]): 1000 µg/mL (≈ 2860 µM)
- MIC (E. coli JT 410 [5]; Escherichia coli, JT410): 250 µg/mL (≈ 715 µM)
- MIC (Pseudomonas Dalgleish): > 2000 µg/mL
- MIC (Staph. aureus Russell): 62 µg/mL (≈ 177 µM)
- MIC (Escherichia coli JT39 [1]): 2000 µg/mL (≈ 5720 µM)
- MIC (Proteus C 889 [6]): 2000 µg/mL and > 2000 µg/mL

SMILES: N[C@@H]1C(=O)N[C@@H]1OC/C=C1\O[C@@H]2CC(=O)N2[C@H]1C(=O)O [Example 14, 9-O-[(3S,4R)-2'-Oxo-3'-aminoazetidin-4'-yl]-clavulanic acid]
- MIC (Staph Russell; read-out: MIC): 62.5 µg/mL (≈ 221 µM)
- MIC (Kleb E 70; [14]): 62.5 µg/mL (≈ 221 µM)
- MIC (E. coli JT 39 [4]; [15]): 31.2 µg/mL (≈ 110 µM)
- MIC (E. coli JT 410 [5]; [16]): 62.5 µg/mL (≈ 221 µM)
- MIC (Proteus C 889 [6]; read-out: MIC): 62.5 µg/mL (≈ 221 µM)

SMILES: CC(NC=O)OC/C=C1\O[C@@H]2CC(=O)N2[C@H]1C(=O)O (some centres unmarked) [Example 9, Lithium 9-O-(1-formamidoethyl)clavulanate]
- MIC (Proteus C 889 [11]; alone, read-out: MIC): 62.5 µg/mL
- MIC (Kleb. E 70): 62.5 µg/mL
- MIC (E. coli JT 410 [13]): 31.2 µg/mL
- MIC (E. coli JT 39 [12]; alone, read-out: MIC): 62.5 µg/mL
- MIC (Staph. Russell): 8 µg/mL
- effect on the effectiveness of amoxycillin (Escherichia coli JT 39; with amoxycillin, sub-cutaneous): enhance the effectiveness of amoxycillin
- MIC (Pseudomonas Dalgleish): > 500 µg/mL

SMILES: NCC(=O)NCCOCC=C1OC2CC(=O)N2C1C(=O)O (centres unmarked) [9-O-[(N-Glycyl)-2-aminoethyl]clavulanic acid]
- MIC (ampicillin + title compound) (Staph Russell; Amp. + 1 μg/ml of title comp.): 1.25 µg/mL
- MIC (ampicillin + title compound) (Staph Russell; Amp. + 5 μg/ml of title comp.): 0.15 µg/mL
- MIC (Staph Russell): 8 µg/mL (≈ 26.7 µM)
- MIC (ampicillin + title compound) (Kleb E 70; Amp. + 1 μg/ml of title comp.): 6.25 µg/mL
- MIC (ampicillin + title compound) (Kleb E 70; Amp. + 5 μg/ml of title comp.): 1.5 µg/mL
- MIC (Kleb E 70; alone): 62.5 µg/mL (≈ 209 µM)
- MIC (ampicillin + title compound) (E. coli JT 39 [4]; Amp. + 1 μg/ml of title comp.): 31.2 µg/mL
- MIC (ampicillin + title compound) (E. coli JT 39 [4]; Amp. + 5 μg/ml of title comp.): 8 µg/mL
- MIC (E. coli JT 39 [4]): 31.2 µg/mL (≈ 104 µM)
- MIC (ampicillin + title compound) (E. coli JT 410 [5]; Amp. + 5 μg/ml of title comp.): 62.5 µg/mL
- MIC (E. coli JT 410 [5]; alone): 62.5 µg/mL (≈ 209 µM)
- MIC (ampicillin + title compound) (Proteus C 889 [6]; Amp. + 1 μg/ml of title comp.): 8 µg/mL
- MIC (ampicillin + title compound) (Proteus C 889 [6]; Amp. + 5 μg/ml of title comp.): 2 µg/mL
- MIC (Proteus C 889 [6]): 250 µg/mL (≈ 835 µM)

SMILES: O=C(O)[C@H]1/C(=C/CO)O[C@@H]2CC(=O)N21 [sodium clavulanate, reference compound]
- concentration at 0.25 h [10]: 960 ng/mL
- concentration at 0.5 h [10]: 3110 ng/mL
- concentration at 1 h [10]: 2910 ng/mL
- concentration at 2 h [10]: 1680 ng/mL
- concentration at 4 h [10]: 280 ng/mL
